Reference: US8530421B2, “Isolated polypeptides used for treatment of inflammatory diseases and inhibiting cancer metastasis” (Supadelixir Inc., priority 2009, dated 2013)

System: IgE-mediated immediate hypersensitivity reaction-induced mice
Test: IgE-mediated immediate hypersensitivity reaction, ear thickness
Format: in vivo, Balb/c mice
Conditions: 100 μg tail vein, then 100 μg intraperitoneally daily from third day; DNFB antigen; 15 days
Protocol: Anti-allergic activity of the polypeptide according to the present invention was investigated. Balb/c mice (about 6 weeks old) were sensitized by injecting IgE antibody (5 μg) through the tail vain thereof. After 24 hours, the protein solution (100 μl) prepared by dissolving the peptide fragment of SEQ ID NO: 13 (100 μg) in PBS (100 μl) was injected through the tail vain of the sensitized mice. A 0.15% DNFB solution [2,4-d]nitrofluorobenzene in aceton: olive oil (4:1)] as an antigen was applied on each ear of the mice so as to induce IgE-mediated immediate hypersensitivity. In case of the negative control mice, only PBS (100 μl) was injected without treating a 0.15% DNFB solution. In case of the positive control mice, PBS (100 μl) was injected and then a 0.15% DNFB solution was treated. The changes in ear thickness were measured with a digital caliper every hour for 12 hours. Every day from the third day, the peptide fragment of SEQ ID NO: 13 (100 μg) was intraperitoneally injected to the test group mice, while only PBS was intraperitoneally injected to the control group mice. The changes in ear thickness were measured for 15 days.
FIG. 12 is the graph obtained by comparing the ear thickness changes of the test group mice and the positive control mice (increased by treating a 0.15% DNFB solution) with those of the negative control.

SEQ ID NO: 13: Leu-Xaa-Asp with Xaa Ala; CD99L2 fragment 121~123, PBDX(or XG) fragment 27~29 (LAD; listed as Homo sapiens)
ear thickness increments relative to the positive control group: remarkably decreased
